US12384768B2, “Isoxazole carboxylic acids as LPA antagonists” (BRISTOL-MYERS SQUIBB COMPANY, priority 2019, dated 2025)

Test system: IPF patients
Experiment: not given
Details: 26-week clinical trial, IPF patients (Palmer et al.); cited from earlier work

| Structure (SMILES) | rate of FVC (forced vital capacity) decline |
| --- | --- |
| Cc1noc(-c2ccc(-c3ccc(C4(C(=O)O)CC4)cc3)cc2)c1NC(=O)O[C@H](C)c1ccccc1 [BMS-986020] | significantly reduce |

Test system: human foetal lung fibroblasts
Experiment: not given
Details: Tager et al.; cited from earlier work

| Structure (SMILES) | chemotaxis of human foetal lung fibroblasts induced by BAL from IPF patients |
| --- | --- |
| Cc1noc(-c2ccc(CSCCC(=O)O)cc2)c1NC(=O)OC(C)c1ccccc1Cl (stereo not drawn) [Ki16425] | blocked |

Test system: nerve-injured mice
Experiment: not given
Details: pretreatment, nerve-injured mice (Inoue et al.); cited from earlier work

| Structure (SMILES) | allodynia and hyperalgesia |
| --- | --- |
| C[C@@H](N)[C@H]1CC[C@H](C(=O)Nc2ccncc2)CC1 [Example Y-27632] | completely abolished |

Test system: UUO mice
Experiment: not given
Details: cited from earlier work

| Structure (SMILES) | development of renal fibrosis, profile compared with LPA1 (-/-) mice |
| --- | --- |
| Cc1noc(-c2ccc(CSCCC(=O)O)cc2)c1NC(=O)OC(C)c1ccccc1Cl (stereo not drawn) [Ki16425] | closely resembled the profile of LPA1 (−/−) mice |

Target: T1, human LPA1 (Homo sapiens, UniProt Q92633)
T1 construct: expressed in transfected cells; host or cells: Chinese hamster ovary (CHO) cells
Experiment: LPA1 functional antagonist assay (calcium flux)
Format: cell-based
Details: CHO cells overexpressing human LPA1; inhibition of calcium flux induced by 10 nM LPA; read-out: hLPA1 IC50
Procedure: The effectiveness of compounds of the present invention as LPA1 inhibitors can be determined in an LPA1 functional antagonist assay as follows:
Chinese hamster ovary cells overexpressing human LPA1 were plated overnight (15,000 cells/well) in poly-D-lysine coated 384-well microplates (Greiner bio-one, Cat #781946) in DMEM/F12 medium (Gibco, Cat #11039). Following overnight culture, cells were loaded with calcium indicator dye (AAT Bioquest Inc, Cat #34601) for 30 minutes at 37° C. The cells were then equilibrated to room temperature for 30 minutes before the assay. Test compounds solubilized in DMSO were transferred to 384 well non-binding surface plates (Corning, Cat #3575) using the Labcyte Echo acoustic dispense and diluted with assay buffer [1×HBSS with calcium/magnesium (Gibco Cat #14025-092), 20 mM HEPES (Gibco Cat #15630-080) and 0.1% fatty acid free BSA (Sigma Cat #A9205)] to a final concentration of 0.5% DMSO. Diluted compounds were added to the cells by FDSS6000 (Hamamatsu) at final concentrations ranging from 0.08 nM to 5 μM. and were then incubated for 20 min at room temperature at which time LPA (Avanti Polar Lipids Cat #857130C) was added at final concentrations of 10 nM to stimulate the cells. The compound IC50 value was defined as the concentration of test compound which inhibited 50% of the calcium flux induced by LPA alone. IC50 values were determined by fitting data to a 4-parameter logistic equation (GraphPad Prism, San Diego CA).

T1 sequence (Q92633 whole entry): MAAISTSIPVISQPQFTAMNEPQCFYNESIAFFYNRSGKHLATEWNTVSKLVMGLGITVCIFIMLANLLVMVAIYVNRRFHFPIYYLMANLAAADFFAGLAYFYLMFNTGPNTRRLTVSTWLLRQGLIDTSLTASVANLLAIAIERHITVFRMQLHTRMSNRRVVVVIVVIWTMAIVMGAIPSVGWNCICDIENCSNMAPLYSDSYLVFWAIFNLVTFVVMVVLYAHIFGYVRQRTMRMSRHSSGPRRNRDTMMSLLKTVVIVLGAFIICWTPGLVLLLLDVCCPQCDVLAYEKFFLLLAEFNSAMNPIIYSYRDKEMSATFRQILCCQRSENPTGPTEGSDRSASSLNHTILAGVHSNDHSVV

| Structure (SMILES) | IC50 [nM] |
| --- | --- |
| Cc1noc(-c2ccc(O[C@H]3COC[C@H](C(=O)O)C3)cc2)c1COC(=O)N(C)C1CCCC1 (racemic) [Example 1, (±)-trans-5-(4-(4-(((cyclopentyl(methyl)carbamoyl)oxy)methyl)-3-methylisoxazol-5-yl)phenoxy)tetrahydro-2H-pyran-3-carboxylic acid)] | 140 |
| Cc1noc(-c2ccc(O[C@@H]3COC[C@H](C(=O)O)C3)cc2)c1COC(=O)N(C)C1CCCC1 (racemic) [Example 2, (±)-cis-5-(4-(4-(((cyclopentyl(methyl)carbamoyl)oxy)methyl)-3-methyl-isoxazol-5-yl)phenoxy)tetrahydro-2H-pyran-3-carboxylic acid)] | 145 |
| Cc1noc(-c2ccc(O[C@@H]3COC[C@@H](C(=O)O)C3)cc2)c1COC(=O)N(C)CCC(C)C (racemic) [Example 3] | 218 |
| Cc1noc(-c2ccc(O[C@H]3CCO[C@H](C(=O)O)C3)cc2)c1COC(=O)N(C)C1CCCC1 (racemic) [Example 5, (±)-trans-4-(4-(4-(((cyclopentyl(methyl)carbamoyl)oxy)methyl)-3-methylisoxazol-5-yl)phenoxy)tetrahydro-2H-pyran-2-carboxylic acid] | 560 |
| Cc1noc(-c2ccc(O[C@H]3CCO[C@@H](C(=O)O)C3)cc2)c1COC(=O)N(C)C1CCCC1 (racemic) [Example 6, (±)-cis-4-(4-(4-(((cyclopentyl(methyl)carbamoyl)oxy)methyl)-3-methylisoxazol-5-yl)phenoxy)tetrahydro-2H-pyran-2-carboxylic acid] | 290 |
| Cc1noc(-c2ccc(O[C@H]3CCO[C@@H](C(=O)O)C3)cc2)c1COC(=O)N(C)CCC(C)C (racemic) [Example 7] | 200 |
| Cc1noc(-c2ccc(O[C@H]3C[C@H](C(=O)O)C[C@@H]4C[C@@H]43)cc2)c1COC(=O)N(C)C1CCCC1 (racemic) [Example 10, (±)-(1S,3R,5S,6S)-5-(4-(4-(((cyclopentyl(methyl)carbamoyl)oxy)methyl)-3-methyl-isoxazol-5-yl)phenoxy) bicyclo[4.1.0]heptane-3-carboxylic acid] | 182 |
| Cc1noc(-c2ccc(OC3CC(C(=O)O)CC4CC43)cc2)c1COC(=O)N(C)C1CCCC1 (racemic) [Example 11, (±)-(1R,3R,5R,6R)-5-(4-(4-(((cyclopentyl(methyl)carbamoyl)oxy)methyl)-3-methylisoxazol-5-yl)phenoxy)bicyclo[4.1.0]heptane-3-carboxylic acid] | 65 |
| Cc1noc(-c2ccc(O[C@@H]3C[C@H](C(=O)O)C[C@H]4C[C@H]43)cc2)c1COC(=O)N(C)C1CCCC1 (racemic) [Example 12, (±)-(1R,3R,5R,6R)-5-(4-(4-(((cyclopentyl(methyl)carbamoyl)oxy)methyl)-3-methylisoxazol-5-yl)phenoxy)bicyclo[4.1.0]heptane-3-carboxylic acid] | 197 |
| CCCCN(C)C(=O)OCc1c(C)noc1-c1ccc(O[C@@H]2C[C@H](C(=O)O)C[C@@H]3C[C@@H]32)cn1 (racemic) [Example 13, (±)-(1S,3R,5R,6S)-5-((6-(4-(((butyl(methyl)carbamoyl)oxy)methyl)-3-methyl-isoxazol-5-yl)pyridin-3-yl)oxy)bicyclo[4.1.0]heptane-3-carboxylic acid] | 22 |
| Cc1noc(-c2ccc(OC3CCC4C(C(=O)O)C34)cc2)c1COC(=O)N(C)C1CCCC1 (racemic) [Example 14, (±)-2-(4-(4-(((Cyclopentyl(methyl)carbamoyl)oxy)methyl)-3-methylisoxazol-5-yl)phenoxy)bicyclo[3.1.0]hexane-6-carboxylic acid] | 48 |
| Cc1noc(-c2ccc(OC3CC4C(C3)C4C(=O)O)cc2)c1COC(=O)N(C)CC1CCC1 (racemic) [Example 15, (±)-3-(4-(4-((((Cyclobutylmethyl)(methyl)carbamoyl)oxy)methyl)-3-methyl-isoxazol-5-yl)phenoxy)bicyclo[3.1.0]hexane-6-carboxylic acid] | 563 |
| Cc1noc(-c2ccc(OC3CCCC4C(C(=O)O)C34)cc2)c1COC(=O)N(C)C1CCCC1 (racemic) [Example 17, (±)-2-(4-(4-(((Cyclopentyl(methyl)carbamoyl)oxy)methyl)-3-methylisoxazol-5-yl)phenoxy) bicyclo [4.1.0]heptane-7-carboxylic acid] | 396 |
| Cc1noc(-c2ccc(O[C@@H]3CCO[C@H](C(=O)O)C3)cc2)c1COC(=O)N(C)CCC(C)C (single isomer, unassigned) [Example 9] | 41 |
| Cc1noc(-c2ccc(O[C@@H]3COC[C@H](C(=O)O)C3)cc2)c1COC(=O)N(C)CCC(C)C [Example 4] | 102 |
| Cc1noc(-c2ccc(O[C@H]3CCO[C@H](C(=O)O)C3)cc2)c1COC(=O)N(C)CCC(C)C [Example 8] | 1100 |
| CCCCN(C)C(=O)OCc1c(C)noc1-c1ccc(OC2CC3C(C2)C3C(=O)O)cc1 (stereo not drawn) [Example 16] | 372 |
| CCCCN(C)C(=O)OCc1c(C)noc1-c1ccc(OC2CCCC3C(C(=O)O)C23)cc1 (stereo not drawn) [Example 18] | 973 |
| Cc1noc(-c2ccc(OC3CCCC4C(C(=O)O)C34)cc2)c1COC(=O)N(C)CC1CCC1 (stereo not drawn) [Example 19] | 1340 |
| Cc1noc(-c2ccc(OC3CCCC4C(C(=O)O)C34)cc2)c1COC(=O)N(C)CC1CC1 (stereo not drawn) [Example 20] | 1520 |

Test system: mouse epithelial renal cell line, MCT
Experiment: not given
Details: MCT cells, co-treatment with LPA; cited from earlier work

| Structure (SMILES) | LPA-induced expression of CTGF |
| --- | --- |
| Cc1noc(-c2ccc(CSCCC(=O)O)cc2)c1NC(=O)OC(C)c1ccccc1Cl (stereo not drawn) [Ki16425] | almost completely suppressed |

Test system: pancreatic cancer cell lines
Experiment: not given
Details: highly peritoneal metastatic pancreatic cancer cell line; cited from earlier work

| Structure (SMILES) | LPA-induced and ascites-induced invasion activity |
| --- | --- |
| Cc1noc(-c2ccc(CSCCC(=O)O)cc2)c1NC(=O)OC(C)c1ccccc1Cl (stereo not drawn) [Ki16425] | blocked |

Same assay, conditions: pancreatic cancer cell lines (Yamada et al.); cited from earlier work

| Structure (SMILES) | in vitro migration in response to LPA and peritoneal fluid (ascites) |
| --- | --- |
| Cc1noc(-c2ccc(CSCCC(=O)O)cc2)c1NC(=O)OC(C)c1ccccc1Cl (stereo not drawn) [Ki16425] | effectively blocked |
